Results reported in ChEMBL document CHEMBL1156326, “Novel N-substituted benzimidazole CXCR4 antagonists as potential anti-HIV agents” (Bioorg Med Chem Lett, 2010).

Key:
[1] = system: Human immunodeficiency virus 1; assay: Antiviral activity against HIV1 3B infected in human HOS cells expressing human CXCR4/CCR5/CD4 and HIV-LTR-luciferase; format: functional, organism-based; details: Human immunodeficiency virus 1, 3B
[2] = Cytotoxicity against human HOS cells; format: cell-based
[3] = molecular target: C-X-C chemokine receptor type 4 (Homo sapiens, UniProt P61073); assay: Inhibition of human CXCR4
Sequence of C-X-C chemokine receptor type 4 (P61073 whole entry): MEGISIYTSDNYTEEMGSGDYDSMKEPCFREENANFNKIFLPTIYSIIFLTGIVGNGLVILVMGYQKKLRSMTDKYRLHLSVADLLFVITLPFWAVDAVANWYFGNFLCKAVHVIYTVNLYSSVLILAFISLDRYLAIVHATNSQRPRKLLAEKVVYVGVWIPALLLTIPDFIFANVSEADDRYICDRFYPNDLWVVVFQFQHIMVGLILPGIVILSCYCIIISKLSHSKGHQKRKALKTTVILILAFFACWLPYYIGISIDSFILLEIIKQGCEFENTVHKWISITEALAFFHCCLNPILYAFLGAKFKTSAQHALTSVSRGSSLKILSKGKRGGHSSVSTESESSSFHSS

[4] = Half life in rat at 1 mg/kg, iv; format: ADME, organism-based; parameters: dose 1 mg/kg, route intravenous; details: in vivo
[5] = Clearance in rat at 1 mg/kg, iv; format: ADME, organism-based; parameters: dose 1 mg/kg, route intravenous; details: in vivo
[6] = Oral bioavailability in rat at 3 mg/kg; format: ADME, organism-based; details: in vivo
[7] = Half life in dog at 1 mg/kg, iv; format: ADME, organism-based, Canis lupus familiaris; parameters: dose 1 mg/kg, route intravenous; details: in vivo
[8] = Clearance in dog at 1 mg/kg, iv; format: ADME, organism-based, Canis lupus familiaris; parameters: dose 1 mg/kg, route intravenous; details: in vivo
[9] = Oral bioavailability in dog at 3 mg/kg; format: ADME, organism-based, Canis lupus familiaris; details: in vivo
[10] = molecular target: Voltage-gated inwardly rectifying potassium channel KCNH2 (Homo sapiens, UniProt Q12809); assay: Binding affinity to human ERG
Sequence of Voltage-gated inwardly rectifying potassium channel KCNH2 (Q12809 whole entry): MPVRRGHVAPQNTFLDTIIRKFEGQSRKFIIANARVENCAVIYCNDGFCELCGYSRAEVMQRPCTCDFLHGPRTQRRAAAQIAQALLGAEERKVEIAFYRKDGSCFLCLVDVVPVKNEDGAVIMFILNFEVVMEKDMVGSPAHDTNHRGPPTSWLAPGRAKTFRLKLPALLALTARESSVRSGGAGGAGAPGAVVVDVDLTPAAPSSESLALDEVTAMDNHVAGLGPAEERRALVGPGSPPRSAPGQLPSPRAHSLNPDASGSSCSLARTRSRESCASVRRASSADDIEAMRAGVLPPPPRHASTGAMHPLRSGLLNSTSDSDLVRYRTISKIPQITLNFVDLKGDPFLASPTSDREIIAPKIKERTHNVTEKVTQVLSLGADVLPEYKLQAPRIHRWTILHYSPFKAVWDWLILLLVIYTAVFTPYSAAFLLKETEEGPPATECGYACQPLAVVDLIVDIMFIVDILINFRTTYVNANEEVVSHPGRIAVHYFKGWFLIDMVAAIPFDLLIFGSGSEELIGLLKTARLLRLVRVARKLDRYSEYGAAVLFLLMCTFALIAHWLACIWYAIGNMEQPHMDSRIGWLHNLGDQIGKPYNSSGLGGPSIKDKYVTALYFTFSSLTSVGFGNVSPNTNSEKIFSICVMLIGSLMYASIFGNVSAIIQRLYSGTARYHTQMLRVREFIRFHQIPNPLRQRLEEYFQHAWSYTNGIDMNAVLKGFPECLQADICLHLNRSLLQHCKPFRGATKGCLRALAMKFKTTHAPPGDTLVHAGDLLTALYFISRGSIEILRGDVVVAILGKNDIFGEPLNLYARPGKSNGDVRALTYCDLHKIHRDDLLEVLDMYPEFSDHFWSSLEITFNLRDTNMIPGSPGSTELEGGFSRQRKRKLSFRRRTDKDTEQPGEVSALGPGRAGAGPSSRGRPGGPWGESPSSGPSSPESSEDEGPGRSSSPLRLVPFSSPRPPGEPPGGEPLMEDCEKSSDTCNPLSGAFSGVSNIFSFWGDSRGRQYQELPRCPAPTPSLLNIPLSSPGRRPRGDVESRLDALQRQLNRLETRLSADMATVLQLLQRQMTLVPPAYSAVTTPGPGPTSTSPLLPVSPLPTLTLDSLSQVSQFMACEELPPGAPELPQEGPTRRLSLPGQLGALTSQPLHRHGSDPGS

[11] = system: Human immunodeficiency virus 1; assay: Antiviral activity against HIV1 3B infected in human HOS cells expressing human CXCR4/CCR5/CD4 and HIV-LTR-luciferase assessed as change in concentration at which 50 % efficacy is observed in presence of human serum albumin and alpha acid glycoprotein; format: functional

IC50 [1]	SMILES	CC50 [2]	fold change (FC) [11]	also measured
500 nM	CN1CCC[C@@H](Cn2c(CN(C)[C@@H]3CCCc4cccnc43)nc3ccccc32)C1	2800 nM		
19 nM	CN1CCCC(Cn2c(CN(C)C3CCCc4cccnc43)nc3ccccc32)C1 (stereo not drawn)	3000 nM		
210 nM	CN1CCC[C@H](Cn2c(CN(C)[C@@H]3CCCc4cccnc43)nc3ccccc32)C1	3600 nM		
21 nM	CN1CCC[C@@H](Cn2c(CN(C)[C@H]3CCCc4cccnc43)nc3ccccc32)C1	3500 nM		
6 nM	CN1CCC[C@H](Cn2c(CN(C)[C@H]3CCCc4cccnc43)nc3ccccc32)C1	3600 nM	10	
12 nM	CN(Cc1nc2ccccc2n1C[C@H]1CCCN(CCO)C1)[C@H]1CCCc2cccnc21	2500 nM	9.1	
57 nM	CN1CCC(Cn2c(CN(C)C3CCCc4cccnc43)nc3ccccc32)C1 (stereo not drawn)	15000 nM		
15 nM	CC(C)CCN1CCC[C@H](Cn2c(CN(C)[C@H]3CCCc4cccnc43)nc3ccccc32)C1	2300 nM	5.1	
8.1 nM	CC(C)CN1CCC[C@H](Cn2c(CN(C)[C@H]3CCCc4cccnc43)nc3ccccc32)C1	> 2000 nM	6.2	

Further lines, the molecule ahead of its results:

SMILES	IC50 [1]	CC50 [2]	fold change (FC) [11]	also measured
CN(Cc1nc2ccccc2n1CCC1CCCCN1)C1CCCc2cccnc21 (stereo not drawn)	64 nM	8300 nM		
CN1CCC(n2c(CN(C)C3CCCc4cccnc43)nc3ccccc32)CC1 (stereo not drawn)	95 nM	16000 nM		IC50 [3]: 76 nM
CC(C)N1CCC[C@H](Cn2c(CN(C)[C@H]3CCCc4cccnc43)nc3ccccc32)C1	2 nM	2100 nM	2	half-life [4]: 5.8 h; clearance [5]: 8.5 mL/min/kg; bioavailability [6]: 11%; half-life [7]: 11 h; clearance [8]: 9.4 mL/min/kg; bioavailability [9]: 22%; Activity [10]: Active; IC50 [3]: 4.5 nM
CN1CC(Cn2c(CN(C)C3CCCc4cccnc43)nc3ccccc32)C1 (stereo not drawn)	66 nM	14000 nM		
CN(Cc1nc2ccccc2n1CC1CNC1)C1CCCc2cccnc21 (stereo not drawn)	84 nM	15000 nM		
CN(Cc1nc2ccccc2n1CCCN)C1CCCc2cccnc21 (stereo not drawn)		9600 nM		IC50 [3]: 47 nM
CN1CCCCC1CCn1c(CN(C)C2CCCc3cccnc32)nc2ccccc21 (stereo not drawn)	33 nM	4900 nM		
CN(Cc1nc2ccccc2n1C1CCNCC1)C1CCCc2cccnc21 (stereo not drawn)	99 nM	13000 nM		
CN(Cc1nc2ccccc2n1C[C@H]1CCCNC1)[C@H]1CCCc2cccnc21	8 nM	3500 nM	1.2	
CN(Cc1nc2ccccc2n1CC1CCNC1)C1CCCc2cccnc21 (stereo not drawn)	24 nM	7700 nM		
CN(Cc1nc2ccccc2n1C[C@H]1CCCN(Cc2cccnc2)C1)[C@H]1CCCc2cccnc21	33 nM	2500 nM	8.7	
CN(Cc1nc2ccccc2n1CC1CCCNC1)C1CCCc2cccnc21 (stereo not drawn)	51 nM	15000 nM		
